Measured values as given in US20220079993A1, “NON-NATURALLY OCCURRING THERMOGENIC ADIPOCYTES, METHODS OF MAKING, AND METHODS OF USE THEREOF” (University of Georgia Research Foundation, Inc., priority 2019, published 2022).

Key:
Type in all cases: cell-based, human
UCP1 = assay: qRT-PCR of UCP1 transcript in beige adipocytes -/+ forskolin; settings: beige adipocytes stimulated with FSK (20 uM)
Protocol: (§1) FIG. 2A is a bar graph showing RNA expression levels by qRT-PCR for indicated genes (UCP1, DIO2) for adipose derived stem cells (ADSCs), GlucoCytes (GC), or GC with forskolin (FSK, 20 uM). FIG. 2B is a bar graph showing quantitation of immunostaining data (UCP1) from 6 independent fields of view. FIGS. 2C and 2D are bar graphs showing qRT-PCR of UCP1 of GC induced from an additional line purchased from ThermoFisher (2C) and an immortalized ADSC line purchased from ATCC (ASC52-telo) (2D). Transcript levels were determined by qRT-PCR. n=3 for each independent replicate. Data are mean+/−standard deviation. *P<0.0.05, **P<0.01, ***P<0.005. […] Cell lysates were collected at indicated days and RNA was isolated and analyzed by qRT-PCR for marker expression. […] Each line was differentiated for 21 days to beige adipocytes using B-8 medium and transcript levels of UCP1 (2Q), PPARGC1 (2R), IRF4 (2S), and ADIPOQ (2T) were measured by Taqman qRT-PCR for indicated genes +/−FSK for 6 hours (20 μM).
(§2) Cells were washed with DPBS, lysed directly on the plate and used for RNA isolation with the E.Z.N.A Total RNA Kit (Omega, R6834-02) according to manufacturer instructions. RNA quantitation was performed with the Biotek Synergy 2 plate reader and cDNA was synthesized using 1 ug of RNA with the iScript cDNA Synthesis Kit (Bio-Rad, 1708841). […]

GC = assay: Seahorse Mito Stress Test; settings: forskolin 20 μM for 24 hours
Protocol: FIG. 5A is a line graph showing the oxygen consumption rate from a Seahorse Mito Stress Test assay of GC compared to white adipocytes (WA). Cells were stimulated with forskolin (FSK, 20 uM) for 24 hours prior to treatment, and oligomycin (3 μM), FCCP (3 μM), and antimycin a/rotenone (5 μM) were added at indicated time points. n=9, where n is the number of independent replicates for each cell type/condition. Assay was normalized to total protein content. FIG. 5B is a line graph showing extracellular acidification rate from the assay in FIG. 5A. FIGS. 5C-5E are bar graphs showing basal respiration rate (5C) from the assay maximal respiration (5D) and proton leak (5E) calculated from assay performed in FIG. 5A. FIG. 5F is a bar graph showing the results of a lipolysis assay of ADSCs or GC (BA), treated with forskolin for indicated time period. FIG. 5G is a bar graph showing quantification of thermogenic dye assay of GC with or without forskolin treatment. […]
To perform the assay, ADSCs were plated on XFe24 plates (Agilent) at 5000 cell/cm^2 and grown to confluency. […] Following the assay, cells were lysed using RIPA buffer and protein concentration was determined by Bradford assay. Data was normalized by protein concentration and analyzed in Wave software (Agilent).

beige adipocytes = assay: High-throughput primary screen, lipolysis assay (glycerol release), 384-well; settings: 20 μM, 24 hours of drug treatment, vs untreated beige adipocytes
Protocol: ADSCs were seeded at 5000 cell/cm^2 in 12-well plates, grown for 5 days and then induced to differentiate into GC for 20 days. […] Cells were treated with forskolin (20 μM) for indicated time periods and supernatant samples were collected. Lipolysis assay was performed with free glycerol reagent (Sigma, F6428-40ML), according to manufacturer instructions.
ADSCs were plated in 384-well plates at a density of 5000 cell/cm2 and grown to confluency over ˜4 days. Cells were then differentiated to beige adipocytes using B-8 medium for 21 days. All cell culture and incubations in the 384-well format were done at 37° C. and 5% CO2. […] The use of FDA-approved drugs may allow for re-purposing for therapeutic use.
Lipolysis assays were performed after 24 hours of drug treatment by measuring free glycerol released in the 384-well format, using the procedure described above. Absorbance for each compound was normalized to untreated control samples for each plate and calculated as a percent of the control. Cut-offs for “activating” and “inhibiting” compounds were set at 2-fold. Validation assays were performed for select compounds at a range of concentration doses.

DIO2 = assay: qRT-PCR of DIO2 transcript in beige adipocytes -/+ forskolin; settings: beige adipocytes stimulated with FSK (20 uM)
Protocol: as §1, §2

## C=C[C@@]1(C)CC(=O)[C@]2(O)[C@@]3(C)[C@@H](O)CCC(C)(C)[C@@H]3[C@H](O)[C@H](OC(C)=O)[C@@]2(C)O1 [Forskolin]
UCP1
  UCP1 transcript level compared to ADSCs: 520 fold
GC
  Elevation of uncoupled respiration (proton leak) relative to basal conditions: 64.7%
Beige adipocytes
  % Control (relative levels of glycerol release): 262.31 % control
DIO2
  DIO2 transcript level compared to ADSCs: 130 fold
